Results as given in patent US12103952B2, “Methods for expressing proteins in axons” (Cornell University, priority 2010, dated 2024).

Test system: CREB
Assay: CREB levels in severed axons by immunofluorescence
Format: cell-based, rat
Conditions: for NGF-dependent restoration of CREB immunofluorescence: 1 μM cycloheximide or 40 μM anisomycin, concurrent with NGF replacement
Method: FIGS. 7A-B are results showing the axonal translation and retrograde transport of endogenous CREB. (A) CREB levels in severed axons of E15 DRGs were assayed by immunofluorescence with a CREB-specific antibody. CREB was depleted on removal of NGF, with near complete loss of fluorescence signals by 3 hours. […] The error bars represent s.e.m. (n=40). (B) CREB is depleted from axon terminals in a microtubule-dependent manner. CREB levels in severed axons were monitored, as in A, after removal and restoration of NGF, in the presence of LLnL or colchicine. Colchicine, but not LLnL, blocked the reduction in CREB levels following removal of NGF. The error bars represent s.e.m. (n=40).
E15 rat or E13 mouse embryonic dorsal root ganglion (DRG) explants were plated on glass-bottom culture dishes (MatTek) or glass coverslips pre-coated with 33 μg/ml poly-D-lysine and 1 μg/ml laminin. CREB^α/Δ−/+ animals used to generate CREB^α/Δ−/− embryos were from Jackson Labs. E15 dissociated DRG neurons were prepared as described by Wu et al., Nature 436, 1020-1024 (2005). DRGs were cultured in B27/Neurobasal medium (Invitrogen) supplemented with 100 ng/ml nerve growth factor (NGF) and […] 5′-fluorodeoxyuridine (5-FdU) for 3 days. siRNA-mediated knockdown in DRG neurons has been described previously by Higuchi et al., Biochemical & Biophysical Research Communications 301, 804-809 (2003) and was performed using siRNAs listed in Table S3. For measurements of CREB levels in isolated axons, axons were severed from cell bodies by removing the explant with a flame-sharpened Pasteur pipette (Wu et al., Nature 436, 1020-1024 (2005)). Modified Boyden chambers were based on the procedure of Twiss (Zheng et al., Journal of Neuroscience 21, 9291-9303 (2001)) and modified to obtain distal axons as described by Wu et al., Nature 436, 1020-1024 (2005). mRNA from harvested axons (Wu et al., Nature 436, 1020-1024 (2005)) was used to prepare a cDNA library using a modified, unbiased single cell protocol as described below. See also Tietjen et al., Neuron 38, 161-175 (2003). Compartmented (Campenot) cultures were prepared as described below. See also Campenot, Proc Natl Acad Sci USA 74, 4516-4519 (1977)).
Images and measurements of signals in axons were taken from the terminal 50 μm of the axon, except where indicated. Analyzed axons were a minimum of 2000 μm for all experiments. DRGs were fixed with 4% PFA in CBS overnight at 4° C., permeabilized with 0.5% Triton X-100/TBS, and blocked in 4% BSA/TBS for 1 hour. DRGs were labeled with antibodies (Table S4) in 2% BSA/0.1% Triton X-100/TBS overnight at 4° C. For image acquisition details, see below.
The axonal localization of CREB was also examined by immunofluorescence. Axons were severed from cultured DRG explants to rule out potential contributions from anterograde transport of cell body-derived CREB. […] Although the majority of CREB protein localized to the nucleus, with substantially lower levels in axons (FIG. 4D), the immunofluorescence signal in axons was specific. Similar immunofluorescence staining was seen using a different CREB-specific antibody that recognized a non-overlapping epitope.
The importin proteins, which bind nuclear-localization sequences (NLS) (Goldfarb et al., Trends in Cell Biology 14, 505-514 (2004)), are present in axons and mediate the retrograde trafficking of axonally-injected fluorescently-labeled NLS peptides (Hanz et al., Neuron 40, 1095-1104 (2003)). Since CREB contains a NLS that mediates its nuclear localization (Waeber & Habener, Mol Endocrinol 5, 1418-1430 (1991)), axonal CREB may be retrogradely transported to the cell body. To determine if endogenously-expressed CREB is retrogradely trafficked, we examined the time course of CREB reduction in axons upon replacement of media with NGF-free media. […]

Molecule: C[C@@H]1C[C@@H]([C@H](O)CC2CC(=O)NC(=O)C2)C(=O)[C@@H](C)C1 [cycloheximide]
- CREB immunoreactivity in severed axons (100 ng/ml NGF + 1 μM cycloheximide, 3 hours): loss of CREB immunoreactivity
- NGF-dependent restoration of CREB immunofluorescence: prevented the restoration of CREB immunofluorescence

Molecule: COc1ccc(C[C@H]2NC[C@H](O)[C@H]2OC(C)=O)cc1 [anisomycin]
- NGF-dependent restoration of CREB immunofluorescence: prevented the restoration of CREB immunofluorescence

Molecule: NGF: nerve growth factor
- time for axonal CREB levels to decrease to baseline (after NGF removal): ≤ 3 h
- time for CREB levels to return to original levels (following restoration of NGF): 2 h
- recovery in CREB levels (within 30 min of NGF restoration): ~40%
